According to ChEMBL document CHEMBL5608215, “Development of amphipathic derivatives of thymol and carvacrol as potent broad-spectrum antibacterial agents” (Eur J Med Chem, 2024):

Experiments:
Format in all cases: functional
Escherichia coli = experiment: Antibacterial activity against Escherichia coli ATCC25922 by CLSI based serial dilution method
Staphylococcus aureus [1] = experiment: Antibacterial activity against methicillin-resistant Staphylococcus aureus 21-5 by CLSI based serial dilution method
Enterococcus faecalis = experiment: Antibacterial activity against Enterococcus faecalis ATCC29212 by CLSI based serial dilution method
Pseudomonas aeruginosa = experiment: Antibacterial activity against Pseudomonas aeruginosa ATCC27853 by CLSI based serial dilution method
Staphylococcus aureus [2] = experiment: Antibacterial activity against Staphylococcus aureus ATCC29213 by CLSI based serial dilution method
Enterococcus = experiment: Antibacterial activity against vancomycin-resistant Enterococcus ATCC51299 by CLSI based serial dilution method

Structure (SMILES)	MIC (Escherichia coli) [µg/mL]	MIC (Staphylococcus aureus [1]) [µg/mL]	MIC (Enterococcus faecalis) [µg/mL]	MIC (Pseudomonas aeruginosa) [µg/mL]	MIC (Staphylococcus aureus [2]) [µg/mL]	MIC (Enterococcus) [µg/mL]
CCCNC(=O)C[N+](C)(C)CCCCOc1cc(C(C)C)ccc1C.[Br-]	128	> 128	64	> 128	64	> 128
CCCCCNC(=O)C[N+](C)(C)CCCCCOc1cc(C)ccc1C(C)C.[Br-]	32	4	16	128	8	16
CCCCNC(=O)C[N+](C)(C)CCCCCOc1cc(C(C)C)ccc1C.[Br-]	> 64	16	16	> 128	16	128
CCCCCNC(=O)C[N+](C)(C)CCCCOc1cc(C(C)C)ccc1C.[Br-]	16	8	8	128	4	16
Cc1ccc(C(C)C)cc1OCCCC[N+](C)(C)CC(=O)N1CCOCC1.[Br-]	> 128	> 128	> 128	> 128	> 128	> 128
CCCCCCCNC(=O)C[N+](C)(C)CCCOc1cc(C)ccc1C(C)C.[Br-]	4	8	2	16	1	4
CCCNC(=O)C[N+](C)(C)CCCOc1cc(C)ccc1C(C)C.[Br-]	> 128	128	128	> 128	64	> 128
CCCN(CCC)C(=O)C[N+](C)(C)CCCOc1cc(C(C)C)ccc1C.[Br-]	128	64	32	> 128	32	128
CCCCCCNC(=O)C[N+](C)(C)CCCCCOc1cc(C(C)C)ccc1C.[Br-]	8	2	2	16	2	8
CCCCN(CCCC)C(=O)C[N+](C)(C)CCCOc1cc(C)ccc1C(C)C.[Br-]	128	8	16	> 128	8	32
CCCCCNC(=O)C[N+](C)(C)CCCCOc1cc(C)ccc1C(C)C.[Br-]	32	8	16	> 128	8	32
Cc1ccc(C(C)C)cc1OCCCC[N+](C)(C)CC(=O)N(CC(C)C)CC(C)C.[Br-]	64	4	8	> 128	4	8
CCCCCCNC(=O)C[N+](C)(C)CCCOc1cc(C)ccc1C(C)C.[Br-]	16	4	4	32	4	8
CCCCN(CCCC)C(=O)C[N+](C)(C)CCCCOc1cc(C(C)C)ccc1C.[Br-]	32	4	4	128	2	16
CCCCCCNC(=O)C[N+](C)(C)CCCOc1cc(C(C)C)ccc1C.[Br-]	16	8	4	32	4	8
Cc1ccc(C(C)C)c(OCCC[N+](C)(C)CC(=O)N2CCOCC2)c1.[Br-]	128	> 128	> 128	> 128	> 128	> 128
CCCCCCNC(=O)C[N+](C)(C)CCCCOc1cc(C(C)C)ccc1C.[Br-]	16	8	4	32	2	8
CCCCN(CCCC)C(=O)C[N+](C)(C)CCCCCOc1cc(C(C)C)ccc1C.[Br-]	16	2	2	32	1	32
CCCN(CCC)C(=O)C[N+](C)(C)CCCCOc1cc(C(C)C)ccc1C.[Br-]	128	32	32	> 128	16	64
CCCCN(CCCC)C(=O)C[N+](C)(C)CCCOc1cc(C(C)C)ccc1C.[Br-]	64	8	8	> 128	4	16
Cc1ccc(C(C)C)c(OCCC[N+](C)(C)CC(=O)N(C(C)C)C(C)C)c1.[Br-]	128	16	16	> 128	16	32
CCCCCCNC(=O)C[N+](C)(C)CCCCOc1cc(C)ccc1C(C)C.[Br-]	16	1	4	64	2	8
